Measurements: patent publication US20130261077A1 (priority 2012, published 2013)

How the values were obtained:
FimH-CRD [1] = target: T1, FimH-CRD (Escherichia coli, UniProt P08191); test: Competitive binding assay by fluorescence polarization, assay 2 (compounds prepared by robotics, plates frozen and thawed)
T1 construct: The first 177 amino acids of the FimH protein; thrombin tag (printed as 'fusion protein with thrombin') (cleaved yes); made in house; host or cells: bacteria (pET21b plasmid)
T1 sequence (P08191 22-177): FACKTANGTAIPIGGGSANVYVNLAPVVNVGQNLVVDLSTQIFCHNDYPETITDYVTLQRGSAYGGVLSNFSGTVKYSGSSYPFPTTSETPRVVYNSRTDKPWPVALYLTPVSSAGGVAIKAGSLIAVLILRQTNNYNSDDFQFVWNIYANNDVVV
Procedure, shortened: (§1)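 Compounds at 0.4 nM–75 μM final (12 points, 3-fold steps, duplicate) compete with a 5 nM Alexa 647 mannoside probe for 60 nM FimH-CRD; 5 h room-temperature incubation in pH 7.0 Tris buffer with 2.5% DMSO, FP read-out, Kd from fitted curves. Assay 1 uses manual dilution, assay 2 robot-made frozen/thawed plates.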

FimH-CRD [2] = target: T1, FimH-CRD; test: Competitive binding assay by fluorescence polarization, assay 1 (compounds prepared by manual serial dilution)
Procedure, shortened: as §1

| SMILES | Kd (FimH-CRD [1]) [nM] | IC50 (FimH-CRD [2]) [nM] | Kd (FimH-CRD [2]) [nM] |
| --- | --- | --- | --- |
| Cn1cnc2ccc(-c3cccc([C@H]4O[C@H](CO)[C@@H](O)[C@H](O)[C@@H]4O)c3)cc21 [Compound 4, (2R,3S,4R,5S,6R)-2-(hydroxymethyl)-6-[3-(3-methylbenzimidazol-5-yl)phenyl]tetrahydropyran-3,4,5-triol] | 13.6 ± 6.1 | 19 | 5.1 ± 0.1 |
| OC[C@H]1O[C@H](c2cccc(-c3cncnc3)c2)[C@@H](O)[C@@H](O)[C@@H]1O [Compound 10, (2R,3S,4R,5S,6R)-2-(hydroxymethyl)-6-(3-pyrimidin-5-ylphenyl)tetrahydropyran-3,4,5-triol] | 10.1 ± 0.6 | 99 | 13.4 ± 6.6 |
| OC[C@H]1O[C@H](c2cccc(-c3cc4ccccc4s3)c2)[C@@H](O)[C@@H](O)[C@@H]1O [Compound 12, (2R,3S,4R,5S,6R)-2-[3-(benzothiophen-2-yl)phenyl]-6-(hydroxymethyl)tetrahydropyran-3,4,5-triol] | 11.7 ± 6.1 | 67 | 9.2 ± 4.4 |
| N#Cc1ccc(-c2cccc([C@H]3O[C@H](CO)[C@@H](O)[C@H](O)[C@@H]3O)c2)cc1 [Compound 22, 3′-((2R,3S,4R,5S,6R)-3,4,5-trihydroxy-6-(hydroxymethyl)tetrahydro-2H-pyran-2-yl)-[1,1′-biphenyl]-4-carbonitrile] | 14.2 ± 11.1 | 49 | 6.6 ± 0.8 |
| CNC(=O)c1cccc([C@H]2O[C@H](CO)[C@@H](O)[C@H](O)[C@@H]2O)c1 [Compound 35, N-methyl-3-((2R,3S,4R,5S,6R)-3,4,5-trihydroxy-6-(hydroxymethyl)tetrahydro-2H-pyran-2-yl)benzamide] | 113 | 172 | 56.2 ± 4.9 |
| CCCCNC(=O)c1cccc([C@H]2O[C@H](CO)[C@@H](O)[C@H](O)[C@@H]2O)c1 [Compound 38, N-butyl-3-((2R,3S,4R,5S,6R)-3,4,5-trihydroxy-6-(hydroxymethyl)tetrahydro-2H-pyran-2-yl)benzamide] | 72.4 ± 34.8 | – | 50.4 ± 3.6 |
| CNC(=O)c1cc(C(=O)NC)cc(-c2ccccc2[C@H]2O[C@H](CO)[C@@H](O)[C@H](O)[C@@H]2O)c1 [Compound 40, N^3,N^5-dimethyl-2′-((2R,3S,4R,5S,6R)-3,4,5-trihydroxy-6-(hydroxymethyl)tetrahydro-2H-pyran-2-yl)-[1,1′-biphenyl]-3,5-dicarboxamide] | 447 ± 490 | 2050 | 474 ± 49.5 |
| COc1cccc([C@H]2O[C@H](CO)[C@@H](O)[C@H](O)[C@@H]2O)c1 [Compound 44, (2R,3S,4R,5S,6R)-2-(hydroxymethyl)-6-(3-methoxyphenyl)tetrahydropyran-3,4,5-triol] | 50.4 ± 10.1 | 156 | 41.8 ± 11.6 |
| Cc1nnc(-c2ccc(-c3cccc([C@H]4O[C@H](CO)[C@@H](O)[C@H](O)[C@@H]4O)c3)cc2)o1 [Compound 48, (2R,3S,4R,5S,6R)-2-(hydroxymethyl)-6-[3-[4-(5-methyl-1,3,4-oxadiazol-2-yl)phenyl]phenyl]tetrahydropyran-3,4,5-triol] | 8.5 ± 1.3 | 34 | < 5 |
| COC(=O)c1cc(Oc2ccc([C@H]3O[C@H](CO)[C@@H](O)[C@H](O)[C@@H]3O)cc2)cc(C(=O)OC)c1 [Compound 53, dimethyl 5-(4-((2R,3S,4R,5S,6R)-3,4,5-trihydroxy-6-(hydroxymethyl)tetrahydro-2H-pyran-2-yl)phenoxy)isophthalate] | 15.7 ± 10.2 | 25 | < 5 |
| COC(=O)c1ccc(Oc2ccc([C@H]3O[C@H](CO)[C@@H](O)[C@H](O)[C@@H]3O)cc2)cc1 [Compound 54, methyl 4-(4-((2R,3S,4R,5S,6R)-3,4,5-trihydroxy-6-(hydroxymethyl)tetrahydro-2H-pyran-2-yl)phenoxy)benzoate] | 13.2 ± 9.2 | 16 | < 5 |
| Cc1nnc(-c2ccc(Oc3cccc([C@H]4O[C@H](CO)[C@@H](O)[C@H](O)[C@@H]4O)c3)cc2)o1 [Compound 60, (2R,3S,4R,5S,6R)-2-(hydroxymethyl)-6-[3-[4-(5-methyl-1,3,4-oxadiazol-2-yl)phenoxy]phenyl]tetrahydropyran-3,4,5-triol] | 10.7 ± 5.3 | 31 | 8.7 ± 2.1 |
| COC(=O)c1cc(C(=O)OC)cc(-c2cccc([C@H]3O[C@H](CO)[C@@H](O)[C@H](O)[C@@H]3O)c2)c1 [Compound 62, Dimethyl 3′-((2R,3S,4R,5S,6R)-3,4,5-trihydroxy-6-(hydroxymethyl)tetrahydro-2H-pyran-2-yl)-[1,1′-biphenyl]-3,5-dicarboxylate] | 7.6 ± 2 | – | 5.5 ± 0.4 |
| CNC(=O)c1cc(Oc2cccc([C@H]3O[C@H](CO)[C@@H](O)[C@H](O)[C@@H]3O)c2)cc(C(=O)NC)c1 [Compound 64, N1,N3-dimethyl-5-(3-((2R,3S,4R,5S,6R)-3,4,5-trihydroxy-6-(hydroxymethyl)tetrahydro-2H-pyran-2-yl)phenoxy)isophthalamide] | 20.7 ± 16.8 | 55 | 15 ± 2.6 |
| OC[C@H]1O[C@H](c2cc(O)ccc2Cl)[C@@H](O)[C@@H](O)[C@@H]1O [Compound 68, (2R,3S,4R,5S,6R)-2-(2-chloro-5-hydroxyphenyl)-6-(hydroxymethyl)tetrahydro-2H-pyran-3,4,5-triol] | 35 ± 21.2 | 22 | 22.1 ± 10.1 |
| OC[C@H]1O[C@H](c2cccc(-c3cc(Cl)cc(Cl)c3)c2)[C@@H](O)[C@@H](O)[C@@H]1O [Compound 79, (2R,3S,4R,5S,6R)-2-[3-(3,5-Dichlorophenyl)phenyl]-6-(hydroxymethyl)tetrahydropyran-3,4,5-triol] | 12.8 ± 0.9 | – | < 5 |
| Cc1nnc(-c2cccc(-c3ccc([C@H]4O[C@H](CO)[C@@H](O)[C@H](O)[C@@H]4O)cc3)c2)o1 [Compound 130, (2R,3S,4R,5S,6R)-2-(hydroxymethyl)-6-[4-[3-(5-methyl-1,3,4-oxadiazol-2-yl)phenyl]phenyl]tetrahydropyran-3,4,5-triol] | 46.2 | – | < 5 |
| Nc1ccc(Oc2cccc([C@H]3O[C@H](CO)[C@@H](O)[C@H](O)[C@@H]3O)c2)cn1 [Compound 258, (2R,3S,4R,5S,6R)-2-[3-[(6-amino-3-pyridyl)oxy]phenyl]-6-(hydroxymethyl)tetrahydropyran-3,4,5-triol] | 31.9 ± 6.3 | – | – |
| OCc1cccc([C@H]2O[C@H](CO)[C@@H](O)[C@H](O)[C@@H]2O)c1 [Compound 260, (2R,3S,4R,5S,6R)-2-(hydroxymethyl)-6-[3-(hydroxymethyl)phenyl]tetrahydropyran-3,4,5-triol] | 125 ± 52.6 | – | – |
| COC(=O)c1ccc(OCc2cccc([C@H]3O[C@H](CO)[C@@H](O)[C@H](O)[C@@H]3O)c2)cc1 [Compound 261, methyl 4-[[3-[(2R,3S,4R,5S,6R)-3,4,5-trihydroxy-6-(hydroxymethyl)tetrahydropyran-2-yl]phenyl]methoxy]benzoate] | 32.2 ± 8.1 | – | – |
| OC[C@H]1O[C@H](c2cccc(COc3ccccc3)c2)[C@@H](O)[C@@H](O)[C@@H]1O [Compound 262, (2R,3S,4R,5S,6R)-2-(hydroxymethyl)-6-[3-(phenoxymethyl)phenyl]tetrahydropyran-3,4,5-triol] | 26.6 ± 11.4 | – | – |
| OC[C@H]1O[C@H](c2cccc(COc3cc(Cl)cc(Cl)c3)c2)[C@@H](O)[C@@H](O)[C@@H]1O [Compound 263, (2R,3S,4R,5S,6R)-2-[3-[(3,5-dichlorophenoxy)methyl]phenyl]-6-(hydroxymethyl)tetrahydropyran-3,4,5-triol] | 22.3 ± 5 | – | – |
| CNC(=O)c1ccc(OCc2cccc([C@H]3O[C@H](CO)[C@@H](O)[C@H](O)[C@@H]3O)c2)cc1 [Compound 264, N-methyl-4-[[3-[(2R,3S,4R,5S,6R)-3,4,5-trihydroxy-6-(hydroxymethyl)tetrahydropyran-2-yl]phenyl]methoxy]benzamide] | 30.8 ± 9.1 | – | – |
| CC(C)C(=O)Nc1ccc(Oc2cccc([C@H]3O[C@H](CO)[C@@H](O)[C@H](O[C@H]4O[C@H](CO)[C@@H](O)[C@H](O)[C@@H]4O)[C@@H]3O)c2)cc1 [Compound 273, N-[4-[3-[(2R,3R,4R,5R,6R)-3,5-Dihydroxy-6-(hydroxymethyl)-4-[(2R,3S,4S,5S,6R)-3,4,5-trihydroxy-6-(hydroxymethyl)tetrahydropyran-2-yl]oxy-tetrahydropyran-2-yl]phenoxy]phenyl]-2-methyl-propanamide] | 21.8 ± 5.2 | 38 | 12.1 ± 5.7 |
| COC(=O)COc1cccc([C@H]2O[C@H](CO)[C@@H](O)[C@H](O[C@H]3O[C@H](CO)[C@@H](O)[C@H](O)[C@@H]3O)[C@@H]2O)c1 [Compound 286, Methyl 2-[3-[(2R,3R,4R,5R,6R)-3,5-dihydroxy-6-(hydroxymethyl)-4-[(2R,3S,4S,5S,6R)-3,4,5-trihydroxy-6-(hydroxymethyl)tetrahydropyran-2-yl]oxy-tetrahydropyran-2-yl]phenoxy]acetate] | 35.1 ± 16.7 | 63 | 17.4 ± 4.8 |
| OC[C@H]1O[C@H](c2cccc(Br)c2)[C@@H](O)[C@@H](O)[C@@H]1O [Intermediate C, (2R,3S,4R,5S,6R)-2-(3-bromophenyl)-6-(hydroxymethyl)tetrahydro-2H-pyran-3,4,5-triol] | 27 | – | 24 ± 5 |
